Results on 15 compounds are retold here after US9040528B2, “Chemical compounds 542” (AstraZeneca AB, priority 2008, dated 2015).

Molecules are shown by their SMILES.

In one experiment the target is Escherichia coli DNA gyrase A/B tetramer (Escherichia coli (strain K12), UniProt P0AES4+P0AES6). The experiment can be described thus: DNA gyrase supercoiling activity fluorescence polarisation assay.
Conditions: not given
Type of experiment: biochemical. In a few lines: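 Supercoiling reactions quenched with 40 nM 5′-BODIPY-FL triplex-forming oligonucleotide probe in pH 3.5 NaCl/sodium acetate buffer; after 60 min, fluorescence anisotropy read (ex 485/em 535 nm). IC50 by nonlinear regression, normalised to 0.8% DMSO (100% activity) and 5 μM ciprofloxacin (0% activity).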
For the compound `CC(C)NC(=O)c1noc2c(Cl)c3c(nc12)CC1(C(=O)NC(=O)NC1=O)[C@H]1[C@H](C)O[C@H](C)CN31` (relative stereo) [Example 127, (2R,4S,4aS)-rel-Chloro-N-isopropyl-2,4-dimethyl-2′,4′,6′-trioxo-2,2′,3′,4,4a,4′,6,6′-octahydro-1H,1′H-spiro[isoxazolo[4,5-g][1,4]oxazino[4,3-a][1,5]naphthyridine-5,5′-pyrimidine]-8-carboxamide], the midpoint of inhibition, the IC50, lay at 19000 nM.

The experiment is the same for the next values; noted with them: 5 nM enzyme, relaxed plasmid, 0.3 mM ATP, ambient temperature; read-out: E. coli DNA gyrase supercoiling IC50.
In the case of `C[C@@H]1CN2c3c(nc4c(-c5cccnc5)noc4c3Cl)CC3(C(=O)NC(=O)NC3=O)[C@H]2[C@H](C)O1` (relative stereo) [Example 109, (2R,4S,4aS)-rel-11-chloro-2,4-dimethyl-8-(pyridyin-3-yl)-2,4,4a,6-tetrahydro-1H,1′H-spiro[isoxazolo[4,5-g][1,4]oxazino[4,3-a][1,5]naphthyridine-5,5′-pyrimidine]-2′,4′,6′(3′H)-trione], the IC50 came out at 500 nM.

With `C[C@@H]1CN2c3c(nc4c(-c5cnccn5)noc4c3Cl)CC3(C(=O)NC(=O)NC3=O)[C@H]2[C@H](C)O1` (relative stereo) [Example 110, (2R,4S,4aS)-rel-11-chloro-2,4-dimethyl-8-(pyrazin-2-yl)-2,4,4a,6-tetrahydro-1H,1′H-spiro[isoxazolo[4,5-g][1,4]oxazino[4,3-a][1,5]naphthyridine-5,5′-pyrimidine]-2′,4′,6′(3′H)-trione], the half-inhibitory concentration (IC50) was 3000 nM. The same measure, in the same setting: to `C[C@@H]1CN2c3c(nc4c(-c5nccs5)noc4c3Cl)CC3(C(=O)NC(=O)NC3=O)[C@H]2[C@H](C)O1` (relative stereo) [Example 111, (2R,4S,4aS)-rel-11-chloro-2,4-dimethyl-8-(thiazol-2-yl)-2,4,4a,6-tetrahydro-1H,1′H-spiro[isoxazolo[4,5-g][1,4]oxazino[4,3-a][1,5]naphthyridine-5,5′-pyrimidine]-2′,4′,6′(3′H)-trione] belongs 700 nM; to `Cc1csc(-c2noc3c(Cl)c4c(nc23)CC2(C(=O)NC(=O)NC2=O)[C@H]2[C@H](C)O[C@H](C)CN42)n1` (relative stereo) [Example 113, (2R,4S,4aS)-rel-11-Chloro-2,4-dimethyl-8-(4-methylthiazol-2-yl)-2,4,4a,6-tetrahydro-1H,1′H-spiro[isoxazolo[4,5-g][1,4]oxazino[4,3-a][1,5]naphthyridine-5,5′-pyrimidine]-2′,4′,6′(3′H)-trione], 2500 nM. Still for that read-out and setting: as for `C[C@@H]1CN2c3c(nc4c(-c5nccn5C)noc4c3Cl)CC3(C(=O)NC(=O)NC3=O)[C@H]2[C@H](C)O1` (relative stereo) [Example 114, (2R,4S,4aS)-rel-11-Chloro-2,4-dimethyl-8-(1-methyl-1H-imidazol-2-yl)-2,4,4a,6-tetrahydro-1H,1′H-spiro[isoxazolo[4,5-g][1,4]oxazino[4,3-a][1,5]naphthyridine-5,5′-pyrimidine]-2′,4′,6′(3′H)-trione], the figure is 5200 nM.

For the compound `C[C@@H]1CN2c3c(nc4c(-c5cncs5)noc4c3Cl)CC3(C(=O)NC(=O)NC3=O)[C@H]2[C@H](C)O1` (relative stereo) [Example 115, (2R,4S,4aS)-rel-11-chloro-2,4-dimethyl-8-(thiazol-5-yl)-2,4,4a,6-tetrahydro-1H,1′H-spiro[isoxazolo[4,5-g][1,4]oxazino[4,3-a][1,5]naphthyridine-5,5′-pyrimidine]-2′,4′,6′(3′H)-trione], the half-inhibitory concentration (IC50) worked out at 1100 nM.

In the case of `C[C@@H]1CN2c3c(nc4c(-c5sc(Cl)nc5Cl)noc4c3Cl)CC3(C(=O)NC(=O)NC3=O)[C@H]2[C@H](C)O1` (relative stereo) [Example 116, (2R,4S,4aS)-rel-11-chloro-2,4-dimethyl-8-(2,4-dichlorothiazol-5-yl)-2,4,4a,6-tetrahydro-1H,1′H-spiro[isoxazolo[4,5-g][1,4]oxazino[4,3-a][1,5]naphthyridine-5,5′-pyrimidine]-2′,4′,6′(3′H)-trione], the IC50 was 2000 nM. Same read-out and setting: to `Cc1ncc(-c2noc3c(Cl)c4c(nc23)CC2(C(=O)NC(=O)NC2=O)[C@H]2[C@H](C)O[C@H](C)CN42)s1` (relative stereo) [Example 117, (2R,4S,4aS)-rel-11-Chloro-2,4-dimethyl-8-(2-methylthiazol-5-yl)-2,4,4a,6-tetrahydro-1H,1′H-spiro[isoxazolo[4,5-g][1,4]oxazino[4,3-a][1,5]naphthyridine-5,5′-pyrimidine]-2′,4′,6′(3′H)-trione] belongs 2000 nM; to `C[C@@H]1CN2c3c(nc4c(-c5cnc(Br)s5)noc4c3Cl)CC3(C(=O)NC(=O)NC3=O)[C@H]2[C@H](C)O1` (relative stereo) [Example 119, (2R,4S,4aS)-rel-11-chloro-2,4-dimethyl-8-(2-bromothiazol-5-yl)-2,4,4a,6-tetrahydro-1H,1′H-spiro[isoxazolo[4,5-g][1,4]oxazino[4,3-a][1,5]naphthyridine-5,5′-pyrimidine]-2′,4′,6′(3′H)-trione], 3100 nM; to `C[C@@H]1CN2c3c(nc4c(-c5ccc(C#N)c(F)c5)noc4c3Cl)CC3(C(=O)NC(=O)NC3=O)[C@H]2[C@H](C)O1` (relative stereo) [Example 121, 4-((2R,4S,4aS)-rel-11-chloro-2,4-dimethyl-2′,4′,6′-trioxo-2,2′,3′,4,4a,4′,6,6′-octahydro-1H,1′H-spiro[isoxazolo[4,5-g][1,4]oxazino[4,3-a][1,5]naphthyridine-5,5′-pyrimidine]-8-yl)-2-fluorobenzonitrile], 600 nM. On to `Cc1cnc(-c2noc3c(Cl)c4c(nc23)CC2(C(=O)NC(=O)NC2=O)[C@H]2[C@H](C)O[C@H](C)CN42)s1` (relative stereo) [Example 122, (2R,4S,4aS)-rel-11-Chloro-2,4-dimethyl-8-(5-methylthiazol-2-yl)-2,4,4a,6-tetrahydro-1H,1′H-spiro[isoxazolo[4,5-g][1,4]oxazino[4,3-a][1,5]naphthyridine-5,5′-pyrimidine]-2′,4′,6′(3′H)-trione], for which the half-maximal inhibitory concentration (IC50) stood at 500 nM. The same measure, in the same setting: to `C[C@@H]1CN2c3c(nc4c(-c5ccc(C(N)=O)nc5)noc4c3Cl)CC3(C(=O)NC(=O)NC3=O)[C@H]2[C@H](C)O1` (relative stereo) [Example 123, 5-((2R,4S,4aS)-rel-11-chloro-2,4-dimethyl-2′,4′,6′-trioxo-2,2′,3′,4,4a,4′,6,6′-octahydro-1H,1′H-spiro[isoxazolo[4,5-g][1,4]oxazino[4,3-a][1,5]naphthyridine-5,5′-pyrimidine]-8-yl)picolinamide] belongs 5800 nM; to `CNC(=O)c1noc2c(Cl)c3c(nc12)CC1(C(=O)NC(=O)NC1=O)[C@H]1[C@H](C)O[C@H](C)CN31` (relative stereo) [Example 125, (2R,4S,4aS)-rel-11-Chloro-N,2,4-trimethyl-2′,4′,6′-trioxo-2,2′,3′,4,4a,4′,6,6′-octahydro-1H,1′H-spiro[isoxazolo[4,5-g][1,4]oxazino[4,3-a][1,5]naphthyridine-5,5′-pyrimidine]-8-carboxamide], 700 nM. Regarding `CCNC(=O)c1noc2c(Cl)c3c(nc12)CC1(C(=O)NC(=O)NC1=O)[C@H]1[C@H](C)O[C@H](C)CN31` (relative stereo) [Example 126, (2R,4S,4aS)-rel-11-chloro-N-ethyl-2,4-dimethyl-2′,4′,6′-trioxo-2,2′,3′,4,4a,4′,6,6′-octahydro-1H,1′H-spiro[isoxazolo[4,5-g][1,4]oxazino[4,3-a][1,5]naphthyridine-5,5′-pyrimidine]-8-carboxamide], the IC50 amounted to 500 nM.

For orientation: IC50 means the concentration that inhibits the measured activity by half.
